Assay results from publication PMC12596731, “Cys–Lys stapling for unprotected peptides via tunable linkers” (National Science Review, 2025).

Legend:
[1] = system: human bladder cancer cells; assay type: cell-based; settings: 48 h
Experimental: XI. Biological Experiments
Cell Counting Kit (CCK-8) was used to evaluate the proliferation inhibition activity of the compounds, and the half inhibitory concentration IC50 value was determined by single-concentration primary screening and multi-concentration.
Fetal Bovine Serum (FBS) 04-001-1acs, Biological industries; PBS phosphate buffer (PB180327), penicillin-streptomycin sulfate double resistant mixture (100× ) […]
Leibovitz's L-15 medium (PM151010), Wuhan Punosai Life Technology Co., LTD.
CCK-8 Kit, Biosharp life sciences; Trypsin-edta Digestive Solution (05200-056), GIBCO; Cellular DMSO (D2650 -100ML), SIGMA; 96-well cell culture plate, Corning Life Sciences (Wujiang) Co., LTD. 25, 75cm2 cell culture bottle, Corning Life Sciences (Wujiang) Co., LTD. Blood cell counting plate, Shanghai Qiujing Biochemical Reagent Instrument Co., LTD. Cisplatin (D8810), Solarbio life sciences;
Instruments and equipment
Super clean workbench (sw-cj-2fd), Sujing Aetna; Microscope (nib -100), Ningbo Yongxin Optical Co., Ltd; Carbon dioxide cell incubator (MCO -18AC), Phcbi; Electric constant temperature water bath pot (HWS -24), Shanghai Yiheng Technology Co., Ltd; Multifunctional microplate reader (Multiskan MK3), Thermo; One ten-thousandth balance (MS105DU), METTLER; Centrifuge (TD4N), ChangshaYingtai Instrument Co., Ltd; Mixer (SCI-VS), Selo Czech Republic, USA.
The samples were dissolved in the cell -grade DMSO after accurately weighing to generate the 10 mM drug solution. The drug solution was further diluted to tenfold detection concentration by cell culture medium.
Standard Operation Procedure
Detection principle of cytotoxicity (CCK -8 method):
The detection principle is that the CCK-8 reagent contains WST-8, which is reduced S52 to a highly water-soluble yellow methyl product (formazan) by dehydrogenase in the cell mitochondria under the action of electron carrier 1-methoxy-5-methylphenazine dimethyl sulfate (1-methoxy PMS). The number of the nail products produced is directly proportional to the number of living cells.
(1) Inoculate cells: The cells were prepared into single cell suspension with the culture medium containing 10% fetal bovine serum, and the 96 well plates were inoculated with 90 uL cell culture medium (Adherent cell viewed 5×10^4/mL and Suspension cell viewed 9×10^4/mL) per well, then cultured at 5% CO2 and 37 ℃ for 24 hours.
(2) Add the sample solution to be tested: Add 10 µL sample solution to each well. One concentration was set for each sample during preliminary screening and three multiple holes were set for each concentration. Eight concentration gradients were set for each sample for IC50 determination and three multiple holes were set for each concentration.
The 96 well plates were cultured at 5% CO2 and 37 ℃ for 48 hours. The experiment was divided into a blank group, control group and drug group.
(3) Color development: The old culture medium and drug solution of adherent cells were sucked out, then 100 µL of CCK-8 solution (diluted ten times with the basic medium) was added and the suspension cells were directly added 10 µL of CCK-8 stock solution. Culture at 37 ℃ with 5% CO2 for 1-4 h (dark operation, real-time observation).
(4) Result detection: The absorbance was measured at 450 nm with an enzyme labeling instrument and the original data and results were recorded.
(5) The toxicity is expressed by cell inhibition, and the calculation formula is as follows:
Cell inhibition (%) = (ODControl-ODDrug) / (ODControl-ODBlank)×100%. The IC50 was calculated by the software graphpad prism 8 (version 8.0.2, from GraphPad SoftwareInc)，and the experimental results are expressed in ± SD.
6) Positive control: Cisplatin.

[2] = Cys-Lys stapling of unprotected peptides with unsymmetrical linker (1.5 equiv): Cys thiol displaces phthalimide from N-thiophthalimide (disulfide, ~1 min), then ring closure by Lys amine attack on pentafluorophenyl ester with DIPEA (4 equiv); settings: the molecule shown is the open-chain precursor, CH3CN:H2O 3:1, 25.0 °C, 0.167 h

CC(=O)N[C@H](C(=O)N[C@@H](CO)C(=O)N[C@@H](Cc1ccccc1)C(=O)N[C@H]1CCCCNC(=O)c2cccc(c2)OCC/C(Cl)=C\SSC[C@@H](C(=O)N[C@@H](CC(C)C)C(=O)N[C@@H](CC(C)C)C(=O)N[C@@H](CO)C(=O)N[C@@H](CCCNC(=N)N)C(N)=O)NC(=O)[C@H](Cc2c[nH]c3ccccc23)NC(=O)[C@H](Cc2ccc(O)cc2)NC(=O)[C@H](CCC(N)=O)NC1=O)[C@@H](C)O [Peptide 5q]
IC50 [1]: 22.4 µM

CC(=O)N[C@H](C(=O)N[C@@H](CO)C(=O)N[C@@H](Cc1ccccc1)C(=O)N[C@@H](CCCCN)C(=O)N[C@@H](CCC(N)=O)C(=O)N[C@@H](Cc1ccc(O)cc1)C(=O)N[C@@H](Cc1c[nH]c2ccccc12)C(=O)N[C@@H](CSS/C(=C/Cl)CCCCCCCCC(=O)Oc1c(F)c(F)c(F)c(F)c1F)C(=O)N[C@@H](CC(C)C)C(=O)N[C@@H](CC(C)C)C(=O)N[C@@H](CO)C(=O)N[C@@H](CCCNC(=N)N)C(N)=O)[C@@H](C)O
ring closure, isolated yield ([2]; 31-membered ring): 68%

CC(=O)N[C@H](C(=O)N[C@@H](CO)C(=O)N[C@@H](Cc1ccccc1)C(=O)N[C@@H](CCCCN)C(=O)N[C@@H](CCC(N)=O)C(=O)N[C@@H](Cc1ccc(O)cc1)C(=O)N[C@@H](Cc1c[nH]c2ccccc12)C(=O)N[C@@H](CSS/C(=C/Cl)CCC(=O)Oc1c(F)c(F)c(F)c(F)c1F)C(=O)N[C@@H](CC(C)C)C(=O)N[C@@H](CC(C)C)C(=O)N[C@@H](CO)C(=O)N[C@@H](CCCNC(=N)N)C(N)=O)[C@@H](C)O
ring closure, isolated yield ([2]; 25-membered ring): 69%

CC(=O)N[C@@H](CCCCN)C(=O)N[C@@H](C)C(=O)N[C@@H](C)C(=O)N[C@@H](C)C(=O)N[C@@H](CSS/C(=C/Cl)CCC(=O)Oc1c(F)c(F)c(F)c(F)c1F)C(=O)N[C@@H](Cc1ccccc1)C(N)=O [Ac-Lys-Ala-Ala-Ala-Cys(S-linker 3a-OPfp)-Phe-NH2]
ring closure, isolated yield ([2]; 25-membered ring): 72%

CC[C@H](C)[C@H](NC(=O)[C@@H]1CCCN1C(=O)[C@H](CSS/C(=C/Cl)CCOc1ccccc1C(=O)Oc1c(F)c(F)c(F)c(F)c1F)NC(C)=O)C(=O)N[C@@H](CCSC)C(=O)N[C@@H](CCC(=O)O)C(=O)N[C@@H](CC(=O)O)C(=O)N[C@@H](CCCNC(=N)N)C(=O)N[C@@H](CCCCN)C(=O)N1CCC[C@H]1C(N)=O [Ac-Cys(S-linker 3i-OPfp)-Pro-Ile-Met-Glu-Asp-Arg-Lys-Pro-NH2]
ring closure, isolated yield ([2]; 37-membered ring): 65%

CC[C@H](C)[C@H](NC(=O)[C@@H]1CCCN1C(=O)[C@H](CSS/C(=C/Cl)CCOc1cccc(C(=O)Oc2c(F)c(F)c(F)c(F)c2F)c1)NC(C)=O)C(=O)N[C@@H](CCSC)C(=O)N[C@@H](CCC(=O)O)C(=O)N[C@@H](CC(=O)O)C(=O)N[C@@H](CCCNC(=N)N)C(=O)N[C@@H](CCCCN)C(=O)N1CCC[C@H]1C(N)=O [Ac-Cys(S-linker 3k-OPfp)-Pro-Ile-Met-Glu-Asp-Arg-Lys-Pro-NH2]
ring closure, isolated yield ([2]; 38-membered ring): 72%

CC(=O)N[C@H](C(=O)N[C@@H](CO)C(=O)N[C@@H](Cc1ccccc1)C(=O)N[C@@H](CCCCN)C(=O)N[C@@H](CCC(N)=O)C(=O)N[C@@H](Cc1ccc(O)cc1)C(=O)N[C@@H](Cc1c[nH]c2ccccc12)C(=O)N[C@@H](CSS/C(=C/Cl)CCCCC(=O)Oc1c(F)c(F)c(F)c(F)c1F)C(=O)N[C@@H](CC(C)C)C(=O)N[C@@H](CC(C)C)C(=O)N[C@@H](CO)C(=O)N[C@@H](CCCNC(=N)N)C(N)=O)[C@@H](C)O
ring closure, isolated yield ([2]; 27-membered ring): 76%

CC(=O)N[C@@H](CCC(N)=O)C(=O)N[C@@H](CO)C(=O)N[C@@H](CCC(N)=O)C(=O)N[C@@H](CCC(N)=O)C(=O)N[C@H](C(=O)N[C@@H](Cc1ccccc1)C(=O)N[C@@H](CSS/C(=C/Cl)CCC(=O)Oc1c(F)c(F)c(F)c(F)c1F)C(=O)N[C@@H](CC(N)=O)C(=O)N[C@@H](CC(C)C)C(=O)N[C@@H](Cc1c[nH]c2ccccc12)C(=O)N[C@@H](CCCNC(=N)N)C(=O)N[C@@H](CC(C)C)C(=O)N[C@@H](CC(C)C)C(=O)N[C@@H](CCCCN)C(=O)N[C@@H](CCC(N)=O)C(=O)N[C@@H](CC(N)=O)C(N)=O)[C@@H](C)O
ring closure, isolated yield ([2]; 34-membered ring): 79%

CC[C@H](C)[C@H](NC(=O)[C@@H]1CCCN1C(=O)[C@H](CSS/C(=C/Cl)COCC(=O)Oc1c(F)c(F)c(F)c(F)c1F)NC(C)=O)C(=O)N[C@@H](CCSC)C(=O)N[C@@H](CCC(=O)O)C(=O)N[C@@H](CC(=O)O)C(=O)N[C@@H](CCCNC(=N)N)C(=O)N[C@@H](CCCCN)C(=O)N1CCC[C@H]1C(N)=O [Ac-Cys(S-linker 3f-OPfp)-Pro-Ile-Met-Glu-Asp-Arg-Lys-Pro-NH2]
ring closure, isolated yield ([2]; 35-membered ring): 75%

CC[C@H](C)[C@H](NC(=O)[C@@H]1CCCN1C(=O)[C@H](CSS/C(=C/Cl)CCCCCC(=O)Oc1c(F)c(F)c(F)c(F)c1F)NC(C)=O)C(=O)N[C@@H](CCSC)C(=O)N[C@@H](CCC(=O)O)C(=O)N[C@@H](CC(=O)O)C(=O)N[C@@H](CCCNC(=N)N)C(=O)N[C@@H](CCCCN)C(=O)N1CCC[C@H]1C(N)=O [Ac-Cys(S-linker 3d-OPfp)-Pro-Ile-Met-Glu-Asp-Arg-Lys-Pro-NH2]
ring closure, isolated yield ([2]; 37-membered ring): 78%

CC(=O)N[C@H](C(=O)N[C@@H](CO)C(=O)N[C@@H](Cc1ccccc1)C(=O)N[C@@H](CCCCN)C(=O)N[C@@H](CCC(N)=O)C(=O)N[C@@H](Cc1ccc(O)cc1)C(=O)N[C@@H](Cc1c[nH]c2ccccc12)C(=O)N[C@@H](CSS/C(=C/Cl)c1cccc(C(=O)Oc2c(F)c(F)c(F)c(F)c2F)c1)C(=O)N[C@@H](CC(C)C)C(=O)N[C@@H](CC(C)C)C(=O)N[C@@H](CO)C(=O)N[C@@H](CCCNC(=N)N)C(N)=O)[C@@H](C)O
ring closure, isolated yield ([2]; 26-membered ring): 84%

CC(=O)N[C@@H](CCC(N)=O)C(=O)N[C@@H](CO)C(=O)N[C@@H](CCC(N)=O)C(=O)N[C@@H](CCC(N)=O)C(=O)N[C@H](C(=O)N[C@@H](Cc1ccccc1)C(=O)N[C@@H](CSS/C(=C/Cl)CCCCCCCCC(=O)Oc1c(F)c(F)c(F)c(F)c1F)C(=O)N[C@@H](CC(N)=O)C(=O)N[C@@H](CC(C)C)C(=O)N[C@@H](Cc1c[nH]c2ccccc12)C(=O)N[C@@H](CCCNC(=N)N)C(=O)N[C@@H](CC(C)C)C(=O)N[C@@H](CC(C)C)C(=O)N[C@@H](CCCCN)C(=O)N[C@@H](CCC(N)=O)C(=O)N[C@@H](CC(N)=O)C(N)=O)[C@@H](C)O
ring closure, isolated yield ([2]; 40-membered ring): 75%

CC(=O)N[C@@H](CCC(N)=O)C(=O)N[C@@H](CO)C(=O)N[C@@H](CCC(N)=O)C(=O)N[C@@H](CCC(N)=O)C(=O)N[C@H](C(=O)N[C@@H](Cc1ccccc1)C(=O)N[C@@H](CSS/C(=C/Cl)CCCCCC(=O)Oc1c(F)c(F)c(F)c(F)c1F)C(=O)N[C@@H](CC(N)=O)C(=O)N[C@@H](CC(C)C)C(=O)N[C@@H](Cc1c[nH]c2ccccc12)C(=O)N[C@@H](CCCNC(=N)N)C(=O)N[C@@H](CC(C)C)C(=O)N[C@@H](CC(C)C)C(=O)N[C@@H](CCCCN)C(=O)N[C@@H](CCC(N)=O)C(=O)N[C@@H](CC(N)=O)C(N)=O)[C@@H](C)O
ring closure, isolated yield ([2]; 37-membered ring): 78%

CC(=O)N[C@H](C(=O)N[C@@H](CO)C(=O)N[C@@H](Cc1ccccc1)C(=O)N[C@@H](CCCCN)C(=O)N[C@@H](CCC(N)=O)C(=O)N[C@@H](Cc1ccc(O)cc1)C(=O)N[C@@H](Cc1c[nH]c2ccccc12)C(=O)N[C@@H](CSS/C(=C/Cl)CCCC(=O)Oc1c(F)c(F)c(F)c(F)c1F)C(=O)N[C@@H](CC(C)C)C(=O)N[C@@H](CC(C)C)C(=O)N[C@@H](CO)C(=O)N[C@@H](CCCNC(=N)N)C(N)=O)[C@@H](C)O
ring closure, isolated yield ([2]; 26-membered ring): 85%
